Numbers after ± are expanded uncertainties.
Conditions: 101.33 kPa, Liquid

CCCCn1cc[n+](C)c1.F[P-](F)(F)(F)(F)F [1-butyl-3-methylimidazolium hexafluorophosphate]
Conditions	mass density [kg/m3]
289.1 K	1372.6 ± 3
291.1 K	1370.8 ± 2.9
293.1 K	1369.1 ± 2.9
295.1 K	1367.4 ± 2.9
297.05 K	1365.8 ± 2.9
299.1 K	1364.1 ± 2.9
301.05 K	1362.4 ± 2.9
303.15 K	1360.6 ± 2.9
305.1 K	1359 ± 2.9
307.15 K	1357.3 ± 2.9
309.15 K	1355.6 ± 2.9
